Experimental data as given in US10854312B2, “Selective peptide antagonists” (BIONIZ, LLC, priority 2013, dated 2020).
“Also recorded” adds a separate entry of the source. No end group written: not given here. MAL‑PEG24 = bi-functional PEG24 molecule (Mal-PEG24)

How the values were obtained:
Assay type in all cases: cell-based
human IL-2 = assay: CTLL-2 proliferation assay (WST-1), IL-2; settings: IL-2 5 and 10 units/ml, BNZ132-PEG-130 0.1-10 μM, WST-1
Procedure: (§1) FIG. 6A-FIG. 6E presents inhibitory spectrum of BNZ132-1 over γc- and non-γc-cytokines. […] Neutralizing antibodies against each cytokine (R & D systems, 5 μg ml^−1) were included as controls. After 20 h, the cells were pulsed with WST-1 (Clontech) and OD450 of each well was measured after 6 h. A 19-mer scrambled peptide was used as a negative control at 5 μM. The experiments were conducted in triplicate (applies to all experiments in FIG. 6A-FIG. 6E). The result represents one of at least three independent experiments (applies to all experiments in FIG. 6A-FIG. 6E). […] In PT-18 proliferation assay, PT-18β or PT-18h21Rα cells were withdrawn of mouse IL-3 for 12 h before the experiment. Cells were then incubated with 1 nM of mouse IL-4, mouse IL-9, or mouse IL-21 in the presence or absence of the indicated doses (μM) of BNZ132-1. Neutralizing antibodies to each cytokine (5 μg ml^−1, except for anti-mouse IL-21 polyclonal antibody which was used at 15 μg ml−1) and a scrambled control peptide (5 μM) were included as negative controls. WST-1 assay was conducted as described above. […] In PT-18 h21Rα survival assay, PT-18h21Rα cells are described in the text. […] Both parental and hIL-21Rα positive PT-18 cells were washed and incubated without IL-3 for 12 h before the assay. […] The Y-axis represents the cpm (count per minute) values measured by a β-counter. […]

IL-6 = assay: T1165 cell proliferation assay, IL-6; settings: IL-6 0.1 ng/ml, BNZ132-PEG-130 0.1-10 μM, 24 hours, WST-1
Procedure: CTLL2 cells are cultured in the presence of 5 u/ml and 10 u/ml of IL-2 (FIG. 10A) and 2.5 ng/ml and 5 ng/ml of IL-15 (FIG. 10B) in the presence of increasing concentration of BNZ132-PEG-130. T1165 cells are cultured with 0.1 ng/ml of IL-6 (FIG. 10C) and increasing concentration of BNZ132-PEG-130. […] BNZ132-1 was conjugated to BNZ130 via a PEG24 linker. The name of the bi-antagonist peptide is BNZ132-PEG-130. FIG. 10A and FIG. 10B show the results of BNZ132-PEG-130 in IL-2 (FIG. 10A) and IL-15 (FIG. 10B) CTLL2 proliferation assay. Cells were washed and incubated with IL-2 (5 and 10 units/ml), IL-15 (2.5 and 5 ng/ml) in the presence or absence of BNZ132-PEG-130 (0.1-10 μM). Cells were then pulsed with the WST-1 reagent to measure the proliferative response for the next 6 hr (OD450). […] Cells are washed and incubated with IL-6 (0.1 ng/ml) in the presence or absence of BNZ132-PEG-130 (0.1-10 μM) for 24 hours. Cells were then pulsed with WST-1 reagent for the following 6 hr to measure OD450. The BNZ130-1 polypeptide as presented in Table 2, above, is tested for its activity in inhibiting IL-6 activity. T1165 cells that are dependent on human or mouse IL-6 for their growth in vitro are selected. The cell line is cultured in the absence of IL-6, In the presence of IL-6, in the presence of BNZ130-1, and in the presence of IL-6 and BNZ130-1.

human IL-15 = assay: CTLL-2 proliferation assay (WST-1), IL-15; settings: IL-15 2.5 and 5 ng/ml, BNZ132-PEG-130 0.1-10 μM, WST-1
Procedure: as §1

IKEFLQSFIHIVQSIINT (SEQ ID NO: 130)—MAL-PEG24—SLTHLIERSSRAVLQSLLRASRQ (SEQ ID NO: 131) (linker (positions not given here) via MAL‑PEG24; also: MAL-PEG24 linker joins the two peptides, attachment points not given here) [BNZ132-PEG-130, BNZ132-1 conjugated to BNZ130 via a PEG24 linker; dual peptide antagonist]
inhibition of IL-2-induced proliferation of CTLL2 cells (human IL-2): inhibiting; also recorded: inhibited in a dose response manner | inhibition of IL-6-induced proliferation of T1165 cells (IL-6): inhibiting; also recorded: inhibited in a dose response manner | inhibition of IL-15-induced proliferation of CTLL2 cells (human IL-15): inhibiting; also recorded: inhibited in a dose response manner
